Data on 2 molecules can be found in US11524950B2, “Treatment of immune-related and inflammatory diseases” (Celgene Corporation, priority 2012, dated 2022).

The subject of assay [1] is IRF4, BLIMP1, XBP1, PAX5, IgJ. Nature of the assay: B and plasma cell transcription factor gene expression (RT-PCR), normal B cell differentiation culture. Type of assay: cell-based, human. Here is the method: Differentiated B cells (see section 8.2.3) were harvested for total ribonucleic acid (RNA) preparation with a Qiacube RNA extraction instrument (Qiagen, Valencia, Calif.) using QIAGEN RNeasy mini spin-column kits. Purified RNA was reverse transcribed into cDNA with thermal cycler [MJ Research; Inc., St. Bruno, Quebec, Canada) using a reverse-transcriptase kit (Applied Biosystems). The gene expression assay was carried out using 7500 RT-PCR system (Applied Biosystems) in triplicate. A glyceraldehyde 3-phosphate dehydrogenase gene expression assay control was run for each sample and used as a normalization control. For each gene, samples within each experiment were normalized to 0.1% DMSO treatment only for that particular time point.

A further assay relates to DBA/2 mice. Briefly: Bleomycin-induced dermal fibrosis mouse model (regression of established fibrosis). The class given is in vivo. The note with it: 30 mg/kg, PO, QD. The protocol: DBA/2 mice were used in this study. Eight animals were used per treatment group in the study. Mice were kept in the animal house under standard conditions with food and water ad libidum.
The compound was suspended, not dissolved, in this vehicle. The formulation was homogenized with a Teflon pestle and mortar (Potter-Elvehjem tissue grinder) using a motorized Eberbach tissue homogenizer. The daily drug stock concentration used in these studies was 3 mg/ml.
Bleomycin was obtained from the pharmacy of the University of Erlangen-Nuremberg and freshly prepared once a week. Skin fibrosis was induced in 6-week-old DBA mice by local intracutaneous injections of 100 μl of bleomycin dissolved in 0.9% NaCl, at a concentration of 0.5 mg/ml, every other day in defined areas of 1.5 cm^2 on the upper back.
To evaluate regression of fibrosis, a modified model of bleomycin induced dermal fibrosis was used. Mice were pre-challenged with bleomycin to induce a robust skin fibrosis. One group received treatment with the test compound, while challenge with bleomycin was ongoing for additional three weeks. The outcome of this group was compared to mice challenged with bleomycin for six weeks (prevention of further progression) and to mice challenged with bleomycin for three weeks followed by NaCl for additional three weeks (induction of regression). The following groups were used in the regression study: • Control group: Intradermal injection of NaCl for six weeks. Control treatment consisted of administration of the vehicle. • Untreated bleomycin group 1 (regression): Intradermal injection of bleomycin for three weeks followed by intradermal injections of NaCl for another three weeks. Treatment consisted of administration of the vehicle. […]
Dermal thickness was determined by staining with hematoxylin and eosin and activated fibroblasts by using immunohistochemistry for alpha smooth muscle actin (α-SMA). The dermal thickness, as determined by the modified Rodnan Skin Score, is currently the most common primary outcome in human clinical trials for anti-fibrotic agents in SSc. […] Dermal thickness was analyzed with a Nikon Eclipse 80i microscope (Nikon, Badhoevedorp, The Netherlands) by measuring the maximal distance between the epidermal-dermal junction and the dermal-subcutaneous fat junction at 4 different skin sections in each mouse. […]
For quantification of myofibroblasts, skin sections were deparaffinized and incubated with 5% bovine serum albumin for 60 minutes. Cells positive for α-SMA were detected by incubation with monoclonal anti-α-SMA antibodies (clone 1A4; Sigma-Aldrich, Steinheim, Germany) for 2 hours at room temperature followed by incubation with 3% hydrogen peroxide for 10 minutes. […]

Assay [2] deals with CTGF, PAI-1, COL1A1, TGFB1. Nature of the assay: Tsk-1 mouse skin TGF-β pathway gene overexpression (qRT-PCR). Type of assay: in vivo. The note with it: 30 mg/kg. The text has this:
Next, to examine the effect of the compound on the overexpression of TGF-β pathway genes in Tsk-1 mouse skin, qRT-PCR was used to measure mRNA levels for six genes: CTGF, PAI-1, COL1A1, α-smooth muscle actin (ALPHA SMA), cartilage oligomeric protein 1 (COMP), and TGFB1. Overexpression was defined as the excess mRNA levels observed in Tsk-1 mouse skin compared to normal pa/pa mouse skin. […] PAI-1 and TGFB1 gene overexpression was not inhibited by the compound.
On the technique in general: Real-time PCR tracks product formation cycle by cycle.

Assay [3] relates to IgM. Briefly: IgM production by SLE patient PBMC (ELISA). As to conditions: Homo sapiens, read-out: IgM IC50 (nM) SLE (n = 3). (In general: In an ELISA, binding on a coated surface is turned into a signal by an enzyme label.)
Protocol: (§1) Supernatants (from section 8.2.3) were harvested and analyzed by ELISA for IgG and IgM production (ZeptoMetrix Corp. Buffalo, N.Y.).
B Cell Differentiation Protocol: Enriched B cells were isolated from fresh buffy-coat (leukocyte enriched units) by Ficoll-Hypaque density gradient centrifugation followed by incubation with EasySep negative selection human B cell enrichment kit (Stem cell technologies). In brief, 2×10^8/ml PBMC were mixed with 4 ml of Robosep buffer and transferred to a 14 mL polystyrene round bottom tube. EasySep Human B cell enrichment cocktail (200 μL) was added per tube, vortexed and incubated at room temperature for 10 minutes. […] After cells were counted, an aliquot was removed for FACS analysis and the remaining cells were used for culture. […]
CD19+ peripheral blood human B cells from normal donors, or total peripheral blood mononuclear cell PBMC for patients with systemic lupus erythematosus (“SLE”), were cultured in the presence of interleukin (“IL”)-2, IL-10, IL15, TLR9 agonist, and CD40 L for 4 days, followed by IL-2, IL-6, IL-10 and IL-15 for another 3 days. Cells were counted, viability assessed, and expression of CD20, CD38, CD44, and CD83 were measured by flow cytometry. Plasmablast lineage factors IRF-4, BLIMP-1, XBP-1, and IgJ, and germinal center markers PAX-5 and BCL-6 were measured by qRT-PCR. […] Secreted immunoglobulins IgG and IgM were measured by ELISA.
The test system of assay [4] is IgM. Briefly: IgM production in normal PBMC differentiation cultures (ELISA). As to conditions: Homo sapiens, read-out: IgM IC50 (nM) Normal (n = 3).
Protocol: (§2) Step 1—B cell Activation—day 0 through day 4: Prepare fresh B cell cocktail by adding 50 μg/mL of human transferrin to B cell media. (Iscoves+10% PFBS, 1% P/S, and 5 μg/mL human insulin). […] Five milliliters (1×10^5/ml) of CD19+ B cell were added to each well of a 6 well flat-bottom plate (final cell count=5×10^5/well). Five L (lx)±compound/DMSO was added to each test well (0.1% final DMSO) and incubated at 37° C. for 4 days.
(§3) Step 2—Plasmablast Generation—day 4 through day 7: Cells were harvested and counted on the cell counter; an aliquot was removed for flow analysis, the remaining cells were washed with PBS. Prepare fresh B cell cocktail by adding 1 μg/ml of human transferrin to B cell media. […] Add B cell differentiation cocktail (final concentration): recombinant human IL-2 (20 U/mL), IL-10 (50 ng/mL), IL-15 (10 ng/mL), IL-6 (50 ng/mL) to cells. Add fresh B cell cocktail and transfer cells back to the original wells and bring volume back to 5 mL. Five L (1×)±compound/DMSO was added to each test well (0.1% final DMSO) and incubated at 37° C. for 4 days.
as §1
(§4) The data was graphed using GraphPad Prism 5.0 software.
IgM and IgG were measured by ELISA.
For the next assay, the system named is IgG. Briefly: IgG production in normal B cell / PBMC differentiation cultures (ELISA). As to conditions: Homo sapiens.
The test system of assay [5] is Human umbilical vascular endothelial cells. Nature of the assay: Human umbilical vascular endothelial cell tube formation assay. Type of assay: cell-based. The note with it: VEGF-induced; at 10 μM; p<0.05 vs stimulated DMSO control. The protocol: Human Umbilical Vascular Endothelial Cell Tube Formation Assay: Compounds were tested in the growth factor-induced HUVEC tube formation assay. The tube formation plates were incubated at 37° C. for 30 minutes for matrigel to polymerize. The HUVECs were starved in 0.1% BSA basal EBM2 medium for 5 hours after washing with the same medium 3 times. The cells were trypsinized and centrifuged. Then 25 μL of 4× serially diluted compounds (10, 1, 0.1, 0.01, 0.001, 0.0001, 0.00001 μM) were added in duplicate with 50 μL of 2×10^4 cells/well to tube formation plates coated with matrigel. […] of 4×VEGF (final concentration=25 ng/mL) or bFGF (final concentration=10 ng/mL) were added to the plates. The cells were then incubated overnight (˜18 hours) at 37° C. in a humidified incubator. The tubule webs were stained with calcein AM at […] in 2% FBS/HBSS for 30 minutes and images taken by fluorescence microscopy. The tubules were quantified by the MetaMorph tube formation software program for tube area and tube length.
The percentage inhibition of cell proliferation, tube formation, migration, and invasion was calculated by subtracting the result for unstimulated DMSO control from test sample results, averaging all replicates, and normalizing to the growth factor-stimulated DMSO control (0% inhibition). The IC50 values were calculated by using GraphPad Prism 5.0.

Where [6] appears, read: Tsk-1 vs pa/pa mouse skin mRNA, p≤0.001.

Like-named read-outs stand apart in the source and are kept apart here.

By IC50 is commonly meant the point on the concentration scale where inhibition reaches its midpoint.

Protocol for IgG: as §2, §3, §1, §4
IgM and IgG were measured by ELISA.

As to `O=C1CC[C@H](N2Cc3c(OCc4ccc(CN5CCOCC5)cc4)cccc3C2=O)C(=O)N1` [Test compound, (S)-3-[4-(4-morphlin-4-ylmethylbenzyloxy)-1-oxo-1,3-dihydro-isoindo-2-yl]piperidine-2,6-dione], in assay [1], the “B cell transcription factor PAX5” value is recorded as “enhanced”, the “expression of plasma cell transcription factor BLIMP1” value is recorded as “dose-dependently inhibited”, the “expression of plasma cell transcription factor RF4” value is given as “dose-dependently inhibited” and the “expression of plasma cell transcription factor XBP1” value is given as “dose-dependently inhibited”. In assay [1] (day 7, 20 nM, qRT-PCR), the BLIMP-1 gene expression is recorded as 14.3 % of control, the IRF-4 gene expression is listed as 20.5 % of control, the IgJ gene expression is 31.5 % of control and the XBP-1 gene expression is on record as 15.1 % of control. Besides, in the assay on DBA/2 mice, the dermal thickening result is given as “no effect” and the numbers of myofibroblasts entry is on record as “did not have an effect”. Further, in assay [2], the PAI-1 gene overexpression result was “not inhibited” and the TGFB1 gene overexpression result was “not inhibited”. For the same molecule, in assay [2] (setting [6]), the “reduction of overexpression of COL1A1” value turned out to be 129% and the “reduction of overexpression of CTGF” value turned out to be 79%. The IC50 in the assay on IgM [3] is 0.9 nM. In addition, in the assay on IgM [4], the IC50 is 0.35 nM. For the same molecule, in the assay with IgG (B-cell, read-out: secreted IgG production IC50), the IC50 is 1.8 nM. Moreover, the IC50 with IgG (PBMC, read-out: IgG IC50 (nM) Normal (n = 3)) was 2.1 nM. Also, the IC50 in the assay on IgG (read-out: IgG production IC50) worked out at 1.8 nM.
`O=C1CC[C@@H](N2Cc3c(OCc4ccc(CN5CCOCC5)cc4)cccc3C2=O)C(=O)N1` [R-enantiomer, (R)-3-[4-(4-morphlin-4-ylmethylbenzyloxy)-1-oxo-1,3-dihydro-isoindo-2-yl]piperidine-2,6-dione]: in assay [5], the “tube area and length” value is “significant inhibition”.
